{
  "source": "patent US10512699B2",
  "about": "(Cedars-Sinai Medical Center, priority 2008, dated 2019)",
  "key": {"[1]": {"target": "T1, Aβ plaques (Homo sapiens, UniProt P05067)", "T1 sequence (P05067 672-713 limits assumed)": "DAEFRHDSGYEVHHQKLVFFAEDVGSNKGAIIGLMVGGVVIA", "assay": "Ex vivo curcumin staining of postmortem human whole-mount retinas", "type": "binding", "source_text": "We also analyzed the human retinas with antibodies directed against human Aβ.\nAutopsy eyes from Alzheimer's patients were procured from the Alzheimer's Disease Research Center, Department of Pathology, University of Southern California (Los Angeles, Calif.), under IRB protocols 99491 and 3201. Healthy donor eyes were purchased from National Disease Research Interchange (NDRI, Philadelphia, Pa.). NDRI has a human tissue collection protocol approved by a managerial committee and subject to National Institutes of Health oversight. Diseased and normal eyes were fixed and stored in 10% neutral buffered formalin. In addition, we used two healthy eyes that were frozen without fixation and stored at −80° C. Whole-mount retinas were prepared from the eyes and further studied by immunohistochemisty.\nThe samples were covered with GVA mounting media (Zymed)."}, "[2]": {"target": "T1, Aβ plaques", "assay": "In vivo labeling of Aβ plaques after systemic curcumin administration, tissues examined afterwards", "set-up": "species or system mouse", "protocol": "Mice were anesthetized and perfused with 4% ice-cold buffered PFA, and a group of mice were not perfused. Their eyes were enucleated and fixed immediately in 4% fresh PFA overnight. For whole mount retinas, the eyes were dissected and the anterior part was removed. The eyecups were soaked for 10 minutes in hyaluronidase (type I-S) (0.07 mg/ml) (Sigma) to liquefy and remove the vitreous residues, than washed for 10 minutes×3 in PBS, and the whole mount retinas were collected. For whole eye sectioning, the eyes were put in 30% sucrose in 4% PFA for 2 hours, than washed for 15 minutes×3 in PBS. The eyes were embedded in O.C.T and frozen slowly on dry ice than sagittal sectioned (7 μm) with cryostat. Brains were collected and fixed immediately in 4% fresh PFA overnight. The brains were put in 30% sucrose (in 4% PFA) gradient. Brains were washed for 15 minutes×3 in PBS, next embedded in O.C.T and frozen slowly on dry ice, then coronal sectioned (30 μm) with cryostat. […] Subsequently, brains and eyes were cryosectioned, or prepared for whole mount retina."}, "[3]": {"target": "T1, Aβ plaques", "assay": "Ex vivo curcumin staining of brain cryosections and retinas of AD-Tg mice", "type": "binding, mouse", "protocol": "Brain cryosections (30 μm thick), retina cross sections (cryosections) (7 μm thick) and whole mount retinas were treated with a permeabilization/blocking solution containing 20% horse serum (Invitrogen) and 0.01-0.1% Triton X-100 (Sigma-Aldrich, St. Louis, Mo.). Sections were stained overnight at 4° C. with a specified combination of the following primary Abs in PBS containing 10% blocking solution: mouse anti-Aβ [human amino-acid residues 1-17; clone 6E10 (1:100; Milipore, Temecula, Calif.)]. […]\nMicrographs of stained tissues were obtained on an Axio Imager Z1 ApoTome-equipped microscope (with motorized Z-drive) with AxioCam MRm monochrome camera ver. […] Quantitative analysis of Aβ plaque number and area (mm^2) was performed from two wholemounted retinas per mouse (n=4 mice per group). […] Quantitative analysis of Aβ plaque number and area (mm^2) in the brain was determined from three coronal sections (two hemispheres each) per mouse with 450 μm intervals, over an area covering hippocampal and cortical regions. […] Total area and quantitative levels of immunoreactivity were determined using a standardized custom histogram-based threshold technique, and then subjected to particle analysis."}, "[4]": {"target": "T1, Aβ plaques", "assay": "In vivo imaging of the retina in live mice after curcumin injection", "set-up": "species or system mouse", "conditions": "single injection 7.5 mg/kg, two hours prior to imaging, excitation 546/15 nm, AD-Tg mice", "protocol": "To investigate the feasibility of our approach for noninvasive plaque detection, we conducted an in vivo imaging of the retina in live mice using a modified stereomicroscope (Leica S6E) with a wavelength-controlled light source and a digital camera.\nMice were anaesthetized with Ketamine 100 mg/ml/kg and Xylazine 20 mg/ml/kg. Mouse pupils were dilated to about 2 mm in diameter with 0.5% phenylephrine hydrochloride ophthalmic solution (Bausch & Lomb) combined with 0.5% tropicamide ophthalmic solution (Mydral; Bausch & Lomb). During the imaging process, the mice were positioned on a stage of the stereomicroscope, and the eye was covered with a drop of PBS supplemented with calcium and magnesium, which served as an optical coupling medium between the eye surface and the imaging lens. A modified stereomicroscope (Leica S6E) that was adjusted to visualize fluorescence and scatter signals at higher resolution was used to capture images (exposure time 750 ms. with gain 4). The modified stereomicroscope was assembled to include a Polychrome V (Till Photonics) variable wavelength light source, a MicroFire color digital camera (Optronics), and an additional 6× (double convex) magnifying lens, with a focal length of 10 cm. Images were repeatedly captured at several different angles, in order to visualize a larger field and to eliminate non-specific reflection signals."}},
  "data": [
    {"compound": "COc1cc(/C=C/C(=O)CC(=O)/C=C/c2ccc(O)c(OC)c2)ccc1O", "note": "[curcumin, diferuloylmethane]", "values": [
      {"measurement": "Co-localization of curcumin with anti-human Aβ immunolabeling", "setting": "[1]; human AD retinas, curcumin after immunolabeling", "value": "confirmed their co-localization"},
      {"measurement": "Plaques detected by curcumin in human retinas", "setting": "[1]; postmortem AD patient eyes (n=9), after Sudan Black B, none in non-AD eyes", "value": "found in all AD patient eyes examined"},
      {"measurement": "Detection of labeled plaques following administered curcumin", "setting": "[2]; i.v., single or multiple injections, retinas and brains", "value": "could be detected in the retinas and brains of AD-Tg mice, but not in the non-Tg (wt) controls"},
      {"measurement": "Affinity for Aβ plaques in vivo", "setting": "[2]; mice, intravenous injection", "value": "high affinity for Aβ plaques in vivo"},
      {"measurement": "Blood-brain barrier crossing", "setting": "[2]; mice, intravenous injection", "value": "crosses the blood-brain barrier"},
      {"measurement": "Blood-retina barrier crossing", "setting": "[2]; mice, intravenous injection", "value": "also crosses the blood-retina barrier"},
      {"measurement": "Detection of retinal Aβ plaques", "setting": "[2]; systemically at a single dose of 7.5 mg/kg or given orally", "value": "effective in detecting retinal Aβ plaques"},
      {"measurement": "Curcumin staining of plaques detected by anti-human Aβ antibodies", "setting": "[3]; hippocampus of AD-Tg mice, brain cryosections, ex vivo", "value": "had an affinity to the same plaques that were detected by antibodies specific to human Aβ"},
      {"measurement": "Curcumin labeling of retinal Aβ plaques", "setting": "[3]; retinas of AD-Tg mice, whole mount and cross-section, not in non-Tg (wt) mice", "value": "presence of Aβ plaques labeled by both curcumin and anti-human AP-antibodies"},
      {"measurement": "Visibility of curcumin-labeled plaques in live mouse retina", "setting": "[4]", "value": "curcumin-labeled plaques were visible"}
    ]}
  ]
}
